The target in one series is DPP-IV (Homo sapiens, UniProt P27487). Put plainly: Tolerance of GLP-1 and its analogues to DPP-IV (RP-HPLC remaining peak area). The format is in vitro ADME. Particulars: peptide 25 μM, DPP-IV 0.5 ng/μL, 37° C.; for Remaining peak area (%)/DPP-IV: 0.0 h; for remaining at 0.5 h, 25 μM / remaining at 2 h, 25 μM / remaining at 4 h, 25 μM / remaining at 8 h, 25 μM / remaining at 12 h, 25 μM: isolated DPP-IV enzyme in buffer, pH 8. Here is the method: (§1) Mix by centrifugation at 8000 rpm for 30 seconds.
Sequence of DPP-IV (P27487 whole entry, species assumed): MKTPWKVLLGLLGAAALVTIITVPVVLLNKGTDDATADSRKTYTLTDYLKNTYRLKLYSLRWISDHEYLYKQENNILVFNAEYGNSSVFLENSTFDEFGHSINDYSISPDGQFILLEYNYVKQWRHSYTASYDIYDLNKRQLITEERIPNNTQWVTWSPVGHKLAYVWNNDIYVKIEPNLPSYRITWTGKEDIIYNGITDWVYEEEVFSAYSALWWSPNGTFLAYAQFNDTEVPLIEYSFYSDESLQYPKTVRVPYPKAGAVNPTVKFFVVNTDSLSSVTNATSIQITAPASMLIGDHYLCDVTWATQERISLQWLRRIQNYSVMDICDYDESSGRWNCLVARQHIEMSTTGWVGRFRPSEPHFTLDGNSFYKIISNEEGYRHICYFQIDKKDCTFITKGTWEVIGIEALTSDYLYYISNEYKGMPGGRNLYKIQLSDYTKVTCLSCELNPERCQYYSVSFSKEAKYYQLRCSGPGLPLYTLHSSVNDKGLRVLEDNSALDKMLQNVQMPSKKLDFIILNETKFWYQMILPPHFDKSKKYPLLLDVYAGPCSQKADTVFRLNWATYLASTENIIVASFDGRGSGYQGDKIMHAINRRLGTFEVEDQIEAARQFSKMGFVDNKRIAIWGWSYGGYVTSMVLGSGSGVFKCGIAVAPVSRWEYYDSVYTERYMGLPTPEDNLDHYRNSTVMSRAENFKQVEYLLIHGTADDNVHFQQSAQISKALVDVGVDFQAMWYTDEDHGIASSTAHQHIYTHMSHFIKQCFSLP
(2) Arrange a certain volume of 0.005 μg/μL DPP-IV solution in another sterile EP.

The target in a further series is NEP24.11 (Homo sapiens, UniProt P08473). In words: Tolerance of GLP-1 and its analogues to NEP24.11 (RP-HPLC remaining peak area). The format is in vitro ADME. The note with it: peptide 30 μM, NEP24.11 1.0 ng/μL, 37° C. The procedure:
as §1
Arrange a certain volume of 0.04 μg/μL NEP24.11 enzyme solution in another sterile EP.

The next series addresses T1, trypsin (Bos taurus, UniProt P00760).
T1 sequence (P00760 24-246): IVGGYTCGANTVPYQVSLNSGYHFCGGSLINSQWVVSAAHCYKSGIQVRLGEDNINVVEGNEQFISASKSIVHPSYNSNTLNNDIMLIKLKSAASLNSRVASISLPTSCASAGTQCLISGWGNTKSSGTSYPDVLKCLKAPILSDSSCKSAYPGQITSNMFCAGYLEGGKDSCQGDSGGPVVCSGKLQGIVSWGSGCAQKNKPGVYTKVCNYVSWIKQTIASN
In words: in vitro. The note with it: isolated enzyme trypsin, pH 7.8. The procedure:
FIG. 17. […] At different time point, 25 μL aliquots was taken out, and 10% (v/v) TFA was added to terminate the reaction.
as §1
Arrange a certain volume of 0.05 μg/μL trypsin solution in another sterile EP. Incubate the EP tubes containing peptides and enzymes at 37° C. for 5 min, and separately add 6 μL of trypsin solution to each EP tube containing peptides and mix well. Start timing and extract 25 μL of reaction solution at 1.5, 3.0, 4.5, 6.0 and 9.0 min later, respectively. Add 3.75 μL of 10% TFA to terminate the reaction and mix well by centrifugation at 8000 rpm for 30 seconds.
Arrange a certain volume of 0.05 μg/μL trypsin solution in another sterile EP. Incubate the EP tubes containing peptides and enzymes at 37° C. for 5 min, and add 9 μL of trypsin solution to each EP tube containing peptides and mix well. Start timing and extract 25 μL of reaction solution at 1.5, 3.0, 4.5, 6.0, 9.0, 15.0, 30.0, and 60.0 min later, respectively. Add 3.75 μL of 10% TFA to terminate the reaction and mix well by centrifugation at 8000 rpm for 30 seconds.
Referring to the experimental method in Example 5, in vitro stability of salmon Calcitonin analogs with oral administration activity to the enzymatic hydrolysis by trypsin, chymotrypsin and elastase were performed.
Referring to the experimental method in Example 5, in vitro stability of IL-17A inhibitory peptides towards the enzymatic hydrolysis by trypsin, chymotrypsin and elastase were performed.

The target in another series is chymotrypsin (Bos taurus, UniProt P00766). Put plainly: in vitro. The method in brief: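 RP-HPLC peak area tracked intact peptide after 37 °C digestion with chymotrypsin (0.05 μg/μL solution, 5 min preincubation). Samples were withdrawn at 1.5-60.0 min and stopped with 10% TFA.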
The nature of series [1]: Stability of GLP-1 and its analogues in human serum. Particulars: 25% (v/v) human serum.
The mark [2] stands for this setting: isolated enzyme chymotrypsin, pH 7.8, Remaining peak area (%)/chymotrypsin.

Data on 2 molecules can be found in US20230416329A1, “A PEPTIDE WITH DISULFIDE BONDS AND INHIBITORY ACTIVITY AGAINST SERINE PROTEASES, DERIVED HYBRID PEPTIDES THEREOF, AND USES THEREOF” (INSTITUTE OF MATERIA MEDICA , CHINESE ACADEMY OF MEDICAL …, priority 2020, published 2023).

Sequence of NEP24.11 (P08473 whole entry): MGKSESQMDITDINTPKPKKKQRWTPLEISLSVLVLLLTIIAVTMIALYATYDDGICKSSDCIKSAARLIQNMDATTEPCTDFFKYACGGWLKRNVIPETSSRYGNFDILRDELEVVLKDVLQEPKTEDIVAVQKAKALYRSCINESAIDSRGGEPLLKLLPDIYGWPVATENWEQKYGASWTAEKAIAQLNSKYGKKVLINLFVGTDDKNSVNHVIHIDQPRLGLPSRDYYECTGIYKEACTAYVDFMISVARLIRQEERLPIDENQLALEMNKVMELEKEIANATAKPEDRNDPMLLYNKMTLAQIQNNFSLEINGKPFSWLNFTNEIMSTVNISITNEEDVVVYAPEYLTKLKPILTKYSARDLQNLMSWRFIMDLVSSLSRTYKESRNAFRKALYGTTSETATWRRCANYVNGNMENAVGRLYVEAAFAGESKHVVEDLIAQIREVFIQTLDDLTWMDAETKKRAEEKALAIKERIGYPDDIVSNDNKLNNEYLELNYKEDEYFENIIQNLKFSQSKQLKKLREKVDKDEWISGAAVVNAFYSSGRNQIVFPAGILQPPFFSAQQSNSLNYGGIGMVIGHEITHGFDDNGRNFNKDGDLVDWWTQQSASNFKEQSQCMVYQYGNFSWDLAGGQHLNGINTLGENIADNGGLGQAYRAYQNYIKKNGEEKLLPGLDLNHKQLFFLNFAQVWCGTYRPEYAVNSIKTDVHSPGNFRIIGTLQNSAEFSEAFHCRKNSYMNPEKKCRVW

Turning to `CC[C@H](C)[C@H](NC(=O)[C@H](Cc1ccccc1)NC(=O)[C@H](CCC(=O)O)NC(=O)[C@H](CCCCN)NC(=O)[C@H](C)NC(=O)[C@H](C)NC(=O)[C@H](CCC(N)=O)NC(=O)CNC(=O)[C@H](CCC(=O)O)NC(=O)[C@H](CC(C)C)NC(=O)[C@H](Cc1ccc(O)cc1)NC(=O)[C@H](CO)NC(=O)[C@H](CO)NC(=O)[C@@H](NC(=O)[C@H](CC(=O)O)NC(=O)[C@H](CO)NC(=O)[C@@H](NC(=O)[C@H](Cc1ccccc1)NC(=O)[C@@H](NC(=O)CNC(=O)[C@H](CCC(=O)O)NC(=O)[C@H](C)NC(=O)[C@H](Cc1c[nH]cn1)NC(=O)CNC(=O)CNC(=O)[C@H](CCCNC(=N)N)NC(=O)[C@H](CO)NC(=O)[C@H](Cc1ccccc1)NC(=O)[C@H](CCCNC(=N)N)NC(=O)[C@H](CCC(N)=O)NC(=O)CNC(=O)CNC(=O)[C@@H]1CCCN1C(=O)[C@H](Cc1ccccc1)NC(=O)[C@@H]1CSSC[C@H](NC(=O)[C@H](CCCNC(=N)N)NC(=O)CN)C(=O)N[C@@H]([C@@H](C)O)C(=O)N[C@@H](CCCCN)C(=O)N[C@@H](CO)C(=O)N[C@@H]([C@@H](C)CC)C(=O)N2CCC[C@H]2C(=O)N2CCC[C@H]2C(=O)N[C@@H]([C@@H](C)CC)C(=O)N1)[C@@H](C)O)[C@@H](C)O)C(C)C)C(=O)N[C@@H](C)C(=O)N[C@@H](Cc1c[nH]c2ccccc12)C(=O)N[C@@H](CC(C)C)C(=O)N[C@H](C(=O)N[C@@H](CCCCN)C(=O)NCC(=O)N[C@@H](CCCNC(=N)N)C(=O)NCC(=O)NCC(=O)N[C@@H](CCCCN)C(=O)O)C(C)C` [BT1-N-GLP-1], on DPP-IV, the “Remaining peak area (%)/DPP-IV” value came out at 100.0 ± 0.0%; the remaining at 0.5 h, 25 μM came out at 88.9 ± 0.8%; the remaining at 2 h, 25 μM was determined as 87 ± 2.7%; the remaining at 4 h, 25 μM came out at 85.8 ± 1.8%. Further, on DPP-IV, the remaining at 8 h, 25 μM turned out to be 87.3 ± 2% and the remaining at 12 h, 25 μM came out at 84.8 ± 1.6%. Also, on NEP24.11 (0.0 h), the “Remaining peak area (%)/NEP24.11” value amounted to 100.0 ± 0.0%. Moreover, the remaining at 0.5 h, 30 μM on NEP24.11 (isolated NEP24.11 enzyme in buffer, pH 7.4, 0.5 h) stood at 90.8 ± 7.1%. The remaining at 2 h, 30 μM on NEP24.11 (isolated NEP24.11 enzyme in buffer, pH 7.4, 2.0 h) came to 78.8 ± 8%. Further, at NEP24.11 (isolated NEP24.11 enzyme in buffer, pH 7.4, 4.0 h), the remaining at 4 h, 30 μM turned out to be 77.8 ± 4.3%. For the same molecule, the remaining at 8 h, 30 μM at NEP24.11 (isolated NEP24.11 enzyme in buffer, pH 7.4, 8.0 h, read-out: Remaining peak area (%)/NEP24.11) came to 71.7 ± 4.9%. Moreover, on trypsin, the remaining at 0.025 h, 60 μM stood at 90.9 ± 3.6%; the remaining at 0.05 h, 60 μM amounted to 96.4 ± 4.9%; the remaining at 0.075 h, 60 μM came to 91.4 ± 3.2%; the remaining at 0.1 h, 60 μM was determined as 93.2 ± 7%. For the same molecule, on trypsin, the remaining at 0.15 h, 60 μM amounted to 88.8 ± 4%; the remaining at 0.25 h, 60 μM was determined as 90 ± 4.4%; the remaining at 0.5 h, 60 μM is 91 ± 6.6%; the remaining at 1 h, 60 μM stood at 88.9 ± 3%. For the same molecule, at chymotrypsin (setting [2]), the remaining at 0.025 h, 60 μM turned out to be 69 ± 4.4%; the remaining at 0.05 h, 60 μM worked out at 58.1 ± 4.9%; the remaining at 0.075 h, 60 μM came out at 53.2%; the remaining at 0.1 h, 60 μM is 23.1 ± 0.9%. In addition, the remaining at 0.15 h, 60 μM on chymotrypsin (setting [2]) stood at 23.5 ± 0.2%.
For the molecule `CC[C@H](C)[C@H](NC(=O)[C@H](Cc1ccccc1)NC(=O)[C@H](CCC(=O)O)NC(=O)[C@H](CCCCN)NC(=O)[C@H](C)NC(=O)[C@H](C)NC(=O)[C@H](CCC(N)=O)NC(=O)CNC(=O)[C@H](CCC(=O)O)NC(=O)[C@H](CC(C)C)NC(=O)[C@H](Cc1ccc(O)cc1)NC(=O)[C@H](CO)NC(=O)[C@H](CO)NC(=O)[C@@H](NC(=O)[C@H](CC(=O)O)NC(=O)[C@H](CO)NC(=O)[C@@H](NC(=O)[C@H](Cc1ccccc1)NC(=O)[C@@H](NC(=O)CNC(=O)[C@H](CCC(=O)O)NC(=O)[C@H](C)NC(=O)[C@H](Cc1c[nH]cn1)NC(=O)CNC(=O)CNC(=O)[C@@H](NC(=O)[C@@H]1CCCN1C(=O)[C@@H](NC(=O)CN)[C@@H](C)CC)[C@@H](C)CC)[C@@H](C)O)[C@@H](C)O)C(C)C)C(=O)N[C@@H](C)C(=O)N[C@@H](Cc1c[nH]c2ccccc12)C(=O)N[C@@H](CC(C)C)C(=O)N[C@H](C(=O)N[C@@H](CCCCN)C(=O)NCC(=O)N[C@@H](CCCNC(=N)N)C(=O)NCC(=O)NCC(=O)N[C@@H](CCCCN)C(=O)NCC(=O)N[C@@H](Cc1ccccc1)C(=O)N[C@H]1CSSC[C@@H](C(=O)N[C@@H](Cc2ccc(O)cc2)C(=O)NCC(=O)O)NC(=O)[C@H](CCC(N)=O)NC(=O)[C@@H]2CCCN2C(=O)[C@@H]2CCCN2C(=O)[C@H]([C@@H](C)CC)NC(=O)[C@H](CO)NC(=O)[C@H](Cc2ccc(O)cc2)NC(=O)[C@H]([C@@H](C)O)NC1=O)C(C)C` [D-GLP-1-CH10], at DPP-IV, the “Remaining peak area (%)/DPP-IV” value amounted to 100.0 ± 0.0%; the remaining at 0.5 h, 25 μM turned out to be 64.9 ± 3.7%; the remaining at 2 h, 25 μM is 66.2 ± 1%; the remaining at 4 h, 25 μM turned out to be 69.3 ± 3.3%. Also, at DPP-IV, the remaining at 8 h, 25 μM is 70.8 ± 0.4% and the remaining at 12 h, 25 μM amounted to 74.4 ± 0.3%. In addition, on chymotrypsin, the “stability towards chymotrypsin hydrolysis (in words)” value is recorded as “lower residual amount”. Besides, at chymotrypsin (setting [2]), the remaining at 0.025 h, 60 μM came to 33.4 ± 1.7%; the remaining at 0.05 h, 60 μM stood at 32.6 ± 0.7%; the remaining at 0.075 h, 60 μM came out at 28.9 ± 1.1%; the remaining at 0.1 h, 60 μM amounted to 31.9 ± 2.9%. At chymotrypsin (setting [2]), the remaining at 0.15 h, 60 μM was determined as 31.3 ± 0.8%; the remaining at 0.25 h, 60 μM was found to be 30.9 ± 1%; the remaining at 0.5 h, 60 μM stood at 32.6 ± 0.6%; the remaining at 1 h, 60 μM was found to be 36.2 ± 1.4%. For the same molecule, the “Remaining peak area (%)/human serum” value in series [1] (0.0 h, peptide 0.03 mM, 37° C.) came to 100.0 ± 0.0%. The “serum stability (in words)” value in series [1] is recorded as “more stable in serum”. Further, in series [1] (human, pH 7), the remaining at 0.5 h, 0.03 mM is 98.4 ± 7.3%; the remaining at 2 h, 0.03 mM worked out at 94.6 ± 2.1%; the remaining at 4 h, 0.03 mM is 101 ± 5.5%; the remaining at 8 h, 0.03 mM amounted to 91.6 ± 6.8%. In series [1] (human, pH 7), the remaining at 12 h, 0.03 mM was 43.7 ± 2.1%.
